Like-named read-outs stand apart in the source and are kept apart here.
Columns and labels:
Test in all cases: biochemical
Parameters in all cases: KINOMEscan active site-directed competition binding assay (DiscoveRx), 456 kinases, per cent of control at 300 nM
Details in all cases: read-out: Percent of Control (%)
ALK = ALK (Homo sapiens, UniProt Q9UM73)
Method in brief: (§1)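 Binding was measured with an active site-directed competition binding assay that quantifies compound–kinase interactions. Test compounds were screened at 300 nmol/L across a 456-kinase panel.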

AURKC = AURKC (Homo sapiens, UniProt Q9UQB9)
Method in brief: as §1

CDK7 = CDK7 (Homo sapiens, UniProt P50613)
Method in brief: as §1

CDKL2 = CDKL2 (Homo sapiens, UniProt Q92772)
Method in brief: as §1

CSNK2A1 = CSNK2A1 (Homo sapiens, UniProt P68400)
Method in brief: as §1

DMPK = DMPK (Homo sapiens, UniProt Q09013)
Method in brief: as §1

FAK = molecular target: T1, FAK (Homo sapiens, UniProt Q05397)
T1 construct: gene PTK2
Method in brief: as §1

FLT3(R834Q) = FLT3(R834Q) (Homo sapiens, UniProt P36888, R834Q)
Method in brief: as §1

GCN2(Kin.Dom.2,S808G) = molecular target: T2, GCN2(Kin.Dom.2,S808G) (Homo sapiens, UniProt Q9P2K8, S808G)
T2 construct: gene EIF2AK4; Kin.Dom.2
Method in brief: as §1

GSK3B = GSK3B (Homo sapiens, UniProt P49841)
Method in brief: as §1

[1] = molecular target: T3, JAK1(JH2domain-pseudokinase) (Homo sapiens, UniProt P23458)
T3 construct: JH2domain-pseudokinase
Method in brief: as §1

KIT = KIT (Homo sapiens, UniProt P10721)
Method in brief: as §1

LZK = molecular target: T4, LZK (Homo sapiens, UniProt O43283)
T4 construct: gene MAP3K13
Method in brief: as §1

MRCKA = molecular target: T5, MRCKA (Homo sapiens, UniProt Q5VT25)
T5 construct: gene CDC42BPA
Method in brief: as §1

MST1R = MST1R (Homo sapiens, UniProt Q04912)
Method in brief: as §1

PAK3 = PAK3 (Homo sapiens, UniProt O75914)
Method in brief: as §1

PIP5K1C = PIP5K1C (Homo sapiens, UniProt O60331)
Method in brief: as §1

SLK = SLK (Homo sapiens, UniProt Q9H2G2)
Method in brief: as §1

TIE1 = TIE1 (Homo sapiens, UniProt P35590)
Method in brief: as §1

TSSK1B = TSSK1B (Homo sapiens, UniProt Q9BXA7)
Method in brief: as §1

[2] = molecular target: T6, TYK2(JH1domain-catalytic) (Homo sapiens, UniProt P29597)
T6 construct: JH1domain-catalytic
Method in brief: as §1

YANK1 = molecular target: T7, YANK1 (Homo sapiens, UniProt Q8WU08)
T7 construct: gene STK32A
Method in brief: as §1

T1 sequence (Q05397 whole entry): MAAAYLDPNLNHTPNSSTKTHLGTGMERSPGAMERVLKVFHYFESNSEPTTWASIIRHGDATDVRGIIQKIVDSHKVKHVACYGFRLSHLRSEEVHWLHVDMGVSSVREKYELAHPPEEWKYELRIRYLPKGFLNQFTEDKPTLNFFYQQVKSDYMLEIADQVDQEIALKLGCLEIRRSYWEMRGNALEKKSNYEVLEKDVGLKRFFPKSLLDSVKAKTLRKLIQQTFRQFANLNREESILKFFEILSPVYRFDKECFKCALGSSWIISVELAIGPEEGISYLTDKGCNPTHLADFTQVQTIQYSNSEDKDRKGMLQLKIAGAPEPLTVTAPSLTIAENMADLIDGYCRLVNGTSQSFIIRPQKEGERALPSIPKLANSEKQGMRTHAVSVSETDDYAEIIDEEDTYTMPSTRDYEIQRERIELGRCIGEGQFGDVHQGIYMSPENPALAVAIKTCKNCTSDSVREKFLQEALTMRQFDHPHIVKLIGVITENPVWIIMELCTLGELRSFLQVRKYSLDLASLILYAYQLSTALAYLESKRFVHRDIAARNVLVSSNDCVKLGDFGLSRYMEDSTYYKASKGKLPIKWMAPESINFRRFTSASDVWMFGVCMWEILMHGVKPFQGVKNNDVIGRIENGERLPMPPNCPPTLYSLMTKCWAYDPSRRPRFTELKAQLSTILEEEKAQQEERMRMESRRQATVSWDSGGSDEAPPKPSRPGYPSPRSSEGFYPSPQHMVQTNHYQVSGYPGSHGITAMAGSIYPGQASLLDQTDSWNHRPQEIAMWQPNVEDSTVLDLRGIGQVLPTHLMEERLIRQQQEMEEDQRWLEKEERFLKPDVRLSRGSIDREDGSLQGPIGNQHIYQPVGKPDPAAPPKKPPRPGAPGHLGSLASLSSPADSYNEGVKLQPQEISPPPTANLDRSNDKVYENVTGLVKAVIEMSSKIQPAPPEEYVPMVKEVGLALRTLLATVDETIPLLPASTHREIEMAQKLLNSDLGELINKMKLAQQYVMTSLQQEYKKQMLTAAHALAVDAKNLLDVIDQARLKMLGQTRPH
Sequence of CSNK2A1 (P68400 whole entry): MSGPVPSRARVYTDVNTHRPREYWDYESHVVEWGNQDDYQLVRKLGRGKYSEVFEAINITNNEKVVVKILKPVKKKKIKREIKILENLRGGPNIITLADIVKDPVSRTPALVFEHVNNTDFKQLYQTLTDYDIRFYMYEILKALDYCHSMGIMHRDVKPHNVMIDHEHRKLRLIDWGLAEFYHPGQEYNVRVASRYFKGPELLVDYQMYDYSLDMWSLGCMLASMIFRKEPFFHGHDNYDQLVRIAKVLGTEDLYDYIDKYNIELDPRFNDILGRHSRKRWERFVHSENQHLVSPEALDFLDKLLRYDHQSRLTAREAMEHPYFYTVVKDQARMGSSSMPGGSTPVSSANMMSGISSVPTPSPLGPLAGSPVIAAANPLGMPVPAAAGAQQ
Sequence of TIE1 (P35590 whole entry): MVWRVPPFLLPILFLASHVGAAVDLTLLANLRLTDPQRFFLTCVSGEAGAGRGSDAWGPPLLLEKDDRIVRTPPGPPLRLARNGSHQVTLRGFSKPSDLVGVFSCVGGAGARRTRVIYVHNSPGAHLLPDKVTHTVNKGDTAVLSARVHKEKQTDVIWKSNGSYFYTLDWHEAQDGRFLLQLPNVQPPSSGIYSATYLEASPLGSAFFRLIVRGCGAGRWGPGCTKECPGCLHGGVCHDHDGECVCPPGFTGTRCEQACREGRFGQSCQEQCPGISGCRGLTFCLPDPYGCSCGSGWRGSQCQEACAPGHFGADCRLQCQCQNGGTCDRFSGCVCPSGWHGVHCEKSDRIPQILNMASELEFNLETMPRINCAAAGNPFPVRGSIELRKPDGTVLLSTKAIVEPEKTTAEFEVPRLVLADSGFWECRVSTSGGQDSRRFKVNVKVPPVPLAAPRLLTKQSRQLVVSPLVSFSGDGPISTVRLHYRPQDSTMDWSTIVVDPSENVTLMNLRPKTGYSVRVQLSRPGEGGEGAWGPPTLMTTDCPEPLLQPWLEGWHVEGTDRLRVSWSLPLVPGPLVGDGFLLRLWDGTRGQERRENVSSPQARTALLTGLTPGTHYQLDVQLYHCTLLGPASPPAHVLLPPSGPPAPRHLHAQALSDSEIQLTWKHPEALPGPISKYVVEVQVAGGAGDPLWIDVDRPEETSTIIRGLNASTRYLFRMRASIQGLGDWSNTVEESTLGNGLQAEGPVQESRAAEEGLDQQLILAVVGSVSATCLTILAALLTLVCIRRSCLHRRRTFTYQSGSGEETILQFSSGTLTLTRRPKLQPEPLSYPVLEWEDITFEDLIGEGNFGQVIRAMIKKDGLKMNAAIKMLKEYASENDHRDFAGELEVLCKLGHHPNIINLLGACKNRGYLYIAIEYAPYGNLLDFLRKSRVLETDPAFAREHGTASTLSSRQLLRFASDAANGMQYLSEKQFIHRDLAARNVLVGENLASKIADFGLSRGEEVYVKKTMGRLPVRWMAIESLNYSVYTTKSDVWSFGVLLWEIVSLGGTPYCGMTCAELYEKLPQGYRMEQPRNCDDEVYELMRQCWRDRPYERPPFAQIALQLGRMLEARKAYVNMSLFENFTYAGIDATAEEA
Sequence of GSK3B (P49841 whole entry): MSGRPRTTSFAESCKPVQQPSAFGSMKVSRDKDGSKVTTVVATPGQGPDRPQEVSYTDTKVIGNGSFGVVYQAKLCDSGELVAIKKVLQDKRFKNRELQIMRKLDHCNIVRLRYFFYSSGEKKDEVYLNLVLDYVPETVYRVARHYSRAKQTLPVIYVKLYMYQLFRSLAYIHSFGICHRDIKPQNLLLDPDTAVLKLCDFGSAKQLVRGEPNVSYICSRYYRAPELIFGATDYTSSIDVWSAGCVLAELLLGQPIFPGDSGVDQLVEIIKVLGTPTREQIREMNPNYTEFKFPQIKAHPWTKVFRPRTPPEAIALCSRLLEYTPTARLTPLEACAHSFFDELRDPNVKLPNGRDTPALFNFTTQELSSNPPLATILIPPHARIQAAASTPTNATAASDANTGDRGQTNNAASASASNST
Sequence of AURKC (Q9UQB9 whole entry): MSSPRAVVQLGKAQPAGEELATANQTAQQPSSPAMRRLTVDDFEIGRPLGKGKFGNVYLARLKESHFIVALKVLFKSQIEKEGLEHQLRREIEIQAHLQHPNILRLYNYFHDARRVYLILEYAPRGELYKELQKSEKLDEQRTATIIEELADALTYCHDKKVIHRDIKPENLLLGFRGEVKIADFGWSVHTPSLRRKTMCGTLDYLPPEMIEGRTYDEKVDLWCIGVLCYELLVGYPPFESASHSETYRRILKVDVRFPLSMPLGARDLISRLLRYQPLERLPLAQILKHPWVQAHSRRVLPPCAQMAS
Sequence of MST1R (Q04912 whole entry): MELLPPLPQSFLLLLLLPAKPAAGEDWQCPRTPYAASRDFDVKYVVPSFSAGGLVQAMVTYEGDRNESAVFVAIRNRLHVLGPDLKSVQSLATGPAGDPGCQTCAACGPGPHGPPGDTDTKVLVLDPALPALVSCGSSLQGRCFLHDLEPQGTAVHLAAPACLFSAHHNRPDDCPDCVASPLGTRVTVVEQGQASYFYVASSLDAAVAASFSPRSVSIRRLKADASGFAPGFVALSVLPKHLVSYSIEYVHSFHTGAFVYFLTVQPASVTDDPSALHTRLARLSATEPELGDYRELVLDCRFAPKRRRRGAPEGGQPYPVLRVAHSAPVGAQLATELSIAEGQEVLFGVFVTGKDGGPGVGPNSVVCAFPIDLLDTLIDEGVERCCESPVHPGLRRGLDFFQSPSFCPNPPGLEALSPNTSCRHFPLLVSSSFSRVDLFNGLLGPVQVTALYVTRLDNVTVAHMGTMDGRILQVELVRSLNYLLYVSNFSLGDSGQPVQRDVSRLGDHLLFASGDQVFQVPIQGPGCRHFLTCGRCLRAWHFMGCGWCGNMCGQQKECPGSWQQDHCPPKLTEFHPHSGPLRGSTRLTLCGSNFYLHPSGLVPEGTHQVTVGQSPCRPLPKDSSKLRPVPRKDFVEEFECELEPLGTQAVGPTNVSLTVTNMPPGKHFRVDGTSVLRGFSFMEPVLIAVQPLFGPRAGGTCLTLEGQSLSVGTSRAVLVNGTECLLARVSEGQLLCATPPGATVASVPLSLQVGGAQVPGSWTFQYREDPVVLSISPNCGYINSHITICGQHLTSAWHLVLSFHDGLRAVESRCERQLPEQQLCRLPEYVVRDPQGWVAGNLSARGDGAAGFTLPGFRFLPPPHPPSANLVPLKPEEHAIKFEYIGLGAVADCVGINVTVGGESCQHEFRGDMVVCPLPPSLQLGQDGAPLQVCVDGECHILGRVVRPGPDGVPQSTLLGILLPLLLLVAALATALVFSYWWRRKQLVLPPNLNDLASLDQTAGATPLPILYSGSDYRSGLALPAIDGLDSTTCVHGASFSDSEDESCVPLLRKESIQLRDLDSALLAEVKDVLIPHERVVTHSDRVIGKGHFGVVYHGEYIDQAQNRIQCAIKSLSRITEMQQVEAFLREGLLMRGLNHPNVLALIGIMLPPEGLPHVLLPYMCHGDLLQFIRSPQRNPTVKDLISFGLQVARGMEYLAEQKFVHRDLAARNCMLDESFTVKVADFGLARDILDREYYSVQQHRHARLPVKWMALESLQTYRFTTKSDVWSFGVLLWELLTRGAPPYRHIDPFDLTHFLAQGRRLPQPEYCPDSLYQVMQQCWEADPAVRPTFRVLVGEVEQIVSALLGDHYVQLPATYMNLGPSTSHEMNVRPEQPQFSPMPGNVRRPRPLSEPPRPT
Sequence of TSSK1B (Q9BXA7 whole entry): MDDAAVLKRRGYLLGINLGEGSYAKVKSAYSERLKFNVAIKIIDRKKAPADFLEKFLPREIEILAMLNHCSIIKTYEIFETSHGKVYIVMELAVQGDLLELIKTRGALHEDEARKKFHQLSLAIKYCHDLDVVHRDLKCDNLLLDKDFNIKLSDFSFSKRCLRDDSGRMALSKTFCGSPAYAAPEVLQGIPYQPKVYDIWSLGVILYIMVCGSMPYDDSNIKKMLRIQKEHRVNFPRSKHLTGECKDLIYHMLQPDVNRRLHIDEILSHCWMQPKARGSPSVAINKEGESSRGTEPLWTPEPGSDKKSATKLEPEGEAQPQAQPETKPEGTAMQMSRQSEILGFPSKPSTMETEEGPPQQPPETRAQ

## O=C(/C=C/c1cnccc1-c1ccc(F)cc1)Nc1ccc(CCc2nnco2)cc1 [T-418, (2E)-3-(4-(4-fluorophenyl)pyridin-3-yl)-N-(4-(2-(1,3,4-oxadiazol-2-yl)ethyl)phenyl)acrylamide]
ALK; sheet T-418
  remaining binding at 0.3 µM: 81%
AURKC; sheet T-418
  remaining binding at 0.3 µM: 100%
CDK7; sheet T-418
  remaining binding at 0.3 µM: 100%
CDKL2; sheet T-418
  remaining binding at 0.3 µM: 100%
CSNK2A1; sheet T-418
  remaining binding at 0.3 µM: 84%
DMPK; sheet T-418
  remaining binding at 0.3 µM: 91%
FAK; sheet T-418
  remaining binding at 0.3 µM: 80%
FLT3(R834Q); sheet T-418
  remaining binding at 0.3 µM: 88%
GCN2(Kin.Dom.2,S808G); sheet T-418
  remaining binding at 0.3 µM: 100%
GSK3B; sheet T-418
  remaining binding at 0.3 µM: 98%
[1]; sheet T-418
  remaining binding at 0.3 µM: 100%
KIT; sheet T-418
  remaining binding at 0.3 µM: 100%
LZK; sheet T-418
  remaining binding at 0.3 µM: 96%
MRCKA; sheet T-418
  remaining binding at 0.3 µM: 100%
MST1R; sheet T-418
  remaining binding at 0.3 µM: 100%
PAK3; sheet T-418
  remaining binding at 0.3 µM: 93%
PIP5K1C; sheet T-418
  remaining binding at 0.3 µM: 100%
SLK; sheet T-418
  remaining binding at 0.3 µM: 100%
TIE1; sheet T-418
  remaining binding at 0.3 µM: 100%
TSSK1B; sheet T-418
  remaining binding at 0.3 µM: 100%
[2]; sheet T-418
  remaining binding at 0.3 µM: 40%
YANK1; sheet T-418
  remaining binding at 0.3 µM: 100%

## Cc1ncccc1Oc1sc(C(N)=O)c2c1-c1c(cnn1C)CC2 [T-474, 1-methyl-8-((2-methylpyridin-3-yl)oxy)-4,5-dihydro-1H-thieno[3,4-g]indazole-6-carboxamide]
ALK
  remaining binding at 0.3 µM: 98%
AURKC
  remaining binding at 0.3 µM: 100%
CDK7
  remaining binding at 0.3 µM: 100%
CDKL2
  remaining binding at 0.3 µM: 100%
CSNK2A1
  remaining binding at 0.3 µM: 61%
DMPK
  remaining binding at 0.3 µM: 98%
FAK
  remaining binding at 0.3 µM: 88%
FLT3(R834Q)
  remaining binding at 0.3 µM: 91%
GCN2(Kin.Dom.2,S808G)
  remaining binding at 0.3 µM: 100%
GSK3B
  remaining binding at 0.3 µM: 94%
[1]
  remaining binding at 0.3 µM: 100%
KIT
  remaining binding at 0.3 µM: 100%
LZK
  remaining binding at 0.3 µM: 100%
MRCKA
  remaining binding at 0.3 µM: 100%
MST1R
  remaining binding at 0.3 µM: 95%
PAK3
  remaining binding at 0.3 µM: 100%
PIP5K1C
  remaining binding at 0.3 µM: 100%
SLK
  remaining binding at 0.3 µM: 100%
TIE1
  remaining binding at 0.3 µM: 100%
TSSK1B
  remaining binding at 0.3 µM: 100%
[2]
  remaining binding at 0.3 µM: 40%
YANK1
  remaining binding at 0.3 µM: 100%

— paper PMC5862592, “CDK8/19 inhibition induces premature G1/S transition and ATR-dependent cell death in prostate cancer cells” (Oncotarget, 2018)
